The source of these data is PubChem BioAssay (NCI).

Holding throughout (experiment): inhibition of tumour cell growth, NCI panel, 48 h
The test system of assay [1] is KM12 colon.
For assay [2], the system named is UO-31 renal.
Assay [3] deals with HS 578T breast.
In assay [4] the test system is UACC-257 melanoma.
Assay [5] deals with DU-145 prostate.
Assay [6] deals with K-562 leukemia.
For assay [7], the system named is PC-3 prostate.
For assay [8], the system named is UACC-62 melanoma.
Assay [9] deals with OVCAR-4 ovarian.
For assay [10], the system named is CAKI-1 renal.
The test system of assay [11] is A498 renal.
In assay [12] the test system is SW-620 colon.
Assay [13] concerns HL-60(TB) leukemia.

“And” between values parts separate entries of the source, which are not always exact repeats. Identical values can stand only once.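 Dose response: 5 concentrations. Exposure: 48 h. Format: 96-well plates. Endpoint: linear interpolation; highest concentration if not reached. At the GI50, growth is halved. TGI marks complete inhibition of growth.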 Bounds are passed on as bounds.

Take `Cc1ccc2c(c1)C(=O)N1CCC[C@H]1C=N2`: the TGI in assay [1] is 39.7 µM; in assay [2], more than 67 µM; in assay [3], 31.5 µM; in assay [4] it was more than 74.3 µM; in [5], more than 100 µM; in assay [6] it was more than 100 µM. Moreover, the TGI in [7] is more than 74.4 µM; in assay [8], 34.7 µM; in [9] it was 53.8 µM; in [10], more than 71.7 µM; in assay [11], more than 100 µM; in assay [12], more than 83.7 µM.
With `COc1cc(C=C2C(C)=NN(c3cccc(Cl)c3)C23C(Cl)C(=O)N3c2nc3ccccc3s2)ccc1O` (centres undefined), the TGI in assay [1] came to 30.1 µM; in assay [2] it was 55 µM; in assay [3] it was 43 µM; in assay [4] it was 73.1 µM; in assay [5], 48.7 µM; in assay [6], 25.2 µM. The TGI in assay [7] was 30.4 µM; in assay [13], 36 µM; in assay [9] it was more than 100 µM; in assay [10], 71.5 µM; in assay [11], 35.2 µM; in [12], 26 µM.
For `CCN(CC)CCCn1c(=O)c2ccccc2n2c3c(=O)n(C)c(=O)n(C)c3nc12`, the TGI came to 19.8 µM in assay [1]; 17.7 µM in [2]; 45.6 µM in [3]; 26.2 µM in assay [4]; 10.6 µM in assay [5]; 33.6 µM in assay [6]. Further, the TGI is 23 µM in [7]; 9.08 µM in assay [13]; 24.1 µM in [8]; 22.6 µM in assay [9]; 15.1 µM in assay [10]; 29.1 µM in assay [12].
Regarding `O=C1CC(=O)NC(=NN2C(=O)/C(=C/c3ccccc3)N=C2c2ccccc2)N1`, the TGI in [1], in [2], in assay [3], in assay [4], in assay [5] and in [6] was more than 100 µM throughout. Moreover, the TGI in assay [7] was more than 100 µM; in assay [8], 96.5 µM; in [9], more than 100 µM; in assay [10], more than 100 µM; in assay [11], more than 100 µM; in [12], more than 100 µM.
Take `Cc1ccc2c(sc(-c3ccc4c(c3)sc(-c3ccc5c(c3)sc(-c3ccc(N(C)C)cc3)[n+]5C)[n+]4C)[n+]2C)c1S(=O)(=O)O` (tested in a mixture with another compound): the TGI in assay [1], in [2], in assay [3], in assay [4], in assay [5] and in assay [6] was more than 100 µM in each case. The TGI in assay [7], in assay [13], in assay [8], in [9], in assay [11] and in [12] was more than 100 µM in each case.
Turning to `N#CC(C#N)=C(N)/C(C#N)=C/c1ccc2ccccc2n1`, the TGI was 41.5 µM in assay [1]; 30.9 µM in assay [2]; 65 µM in [3]; more than 100 µM in [4]; more than 100 µM in assay [5]; more than 100 µM in [6]. Besides, the TGI in assay [7] was 79.4 µM; in assay [8], 45.9 µM; in assay [9] it was more than 100 µM; in assay [10], 65.1 µM; in assay [11] it was more than 100 µM.
`COC1C(O)C(C)OC(OC2C(Oc3cccc4c(O)c5c(=O)oc6ccc(C)c7c(=O)oc(c34)c5c67)OC(C)C(O)C2O)C1O` (centres undefined): the GI50 in assay [1] was 2.17 µM; in assay [13] it was 4.08 µM; in [8], 1.35 µM; in assay [9], 11.5 µM; in [11], 1.22 µM; in assay [12], 1.28 µM. For the same compound, the TGI in [1] is 16.6 µM and 8.05 µM; in [2], 36.5 µM and 18.9 µM; in assay [3], 20.4 µM; in [4] it was 5.85 µM and 5.46 µM; in [5], 53.6 µM; in assay [6], 19.3 µM and 8.81 µM. In addition, the TGI in assay [7] is 17.8 µM; in assay [13] it was 27.4 µM and 6.95 µM; in assay [8], 3.26 µM and 3.56 µM; in [9] it was 35.1 µM and 18.3 µM; in assay [11] it was 4.04 µM and 5.15 µM; in assay [12], 63.8 µM and 20.5 µM.
As to `C/C=C\C(CC(=O)NCCC1CN(S(=O)(=O)C(F)(F)F)c2ccccc21)CC(=O)OC` (centres undefined), the TGI in assay [1] was more than 100 µM; in [2] it was more than 100 µM; in assay [3] it was 72.3 µM; in assay [4] it was more than 100 µM; in assay [5], more than 100 µM; in assay [6], more than 100 µM. The TGI in assay [7], in assay [8], in assay [9], in [10], in assay [11] and in [12] was more than 100 µM each time.
With `Cc1nn(C(=O)c2ccncc2)c2c1C(c1ccccc1)SC(N)=N2` (centres undefined), the TGI in assay [1], in [3], in assay [4], in [5], in [6] and in assay [7] was more than 10 µM in each case. For the same compound, the TGI in assay [13], in [8], in assay [9], in assay [10] and in assay [12] was more than 10 µM throughout.
As to `NC(=O)NC(=O)c1cccc(CNc2ccc(C(=O)N[C@@H](CCC(=O)O)C(=O)O)cc2)n1`, the TGI in assay [1], in assay [2], in assay [3], in [4], in [5] and in assay [6] was more than 100 µM throughout. The TGI in assay [7], in assay [13], in assay [8], in assay [9], in assay [10] and in [12] was more than 100 µM each time.
Consider `CC=CCOc1cc(NC(=S)OC(C)C)ccc1Cl` (mixture of isomers), for which the TGI in [1] was found to be 33.4 µM; in [2], 24.7 µM; in assay [3], 43.9 µM; in assay [4] it was 46.5 µM; in [5], 76.9 µM; in [7], 34.3 µM. For the same compound, the TGI in assay [13] came out at 55.7 µM; in [8] it was 30.7 µM; in assay [9], 32.4 µM; in assay [10], 22.8 µM; in [11] it was 30.7 µM; in assay [12] it was 35.3 µM.
As for `Cc1ccc(S(=O)(=O)N2C[C@](O)(c3ccccc3)[C@H]2C)cc1`, the TGI in assay [1], in assay [2], in assay [3], in assay [4], in [5] and in assay [7] was more than 100 µM in each case. The TGI in [13], in assay [8], in assay [9], in [10], in [11] and in assay [12] was more than 100 µM in each case.
Consider `CCN(CC)CCNC(=O)c1ccc(I)cc1`, for which the TGI in assay [1], in assay [2], in assay [3], in assay [4], in assay [5] and in assay [6] was more than 100 µM throughout. Further, the TGI in assay [7] was more than 100 µM; in assay [9], more than 100 µM; in [10] it was more than 100 µM; in assay [11] it was 84.9 µM; in assay [12], more than 100 µM.
Consider `C=C(C)CC1(O)C(=O)C(OCC)=C1OCC` (centres undefined), for which the TGI in assay [1], in [2], in [3], in assay [4], in assay [5] and in [7] was more than 100 µM in each case. Further, the TGI in [13], in assay [8], in [9], in [10], in [11] and in assay [12] was more than 100 µM in each case.
For `CCOc1ccc(NC(=O)/C(=N\NC(C)(C)C)C2C(=O)Nc3ccccc3S2=O)cc1` (centres undefined), the TGI in [1], in assay [2], in [3], in assay [4], in [5] and in assay [6] was more than 100 µM each time. In addition, the TGI in assay [7], in assay [13], in assay [8], in assay [9], in assay [11] and in assay [12] was more than 100 µM throughout.
As to `Cc1cc(N=Nc2c(O)ccc3ccccc23)ccc1N=Nc1cccc([N+](C)(C)C)c1`, the TGI was 17.3 µM in assay [1]; 29.7 µM in assay [2]; 47 µM in assay [3]; more than 63.5 µM in assay [4]; 48.2 µM in assay [5]; more than 90.7 µM in [6]. For the same compound, the TGI in [7] is 35.1 µM; in [8], more than 61.6 µM; in [9], more than 100 µM; in assay [10] it was 62.9 µM; in assay [11], 98.8 µM; in assay [12], 46.9 µM.
`CCOC(=O)c1sc(N/N=C2\NC(=O)/C(=C/c3ccc([N+](=O)[O-])cc3)S2)nc1C`: the TGI was 57.1 µM in assay [1]; 47 µM in assay [2]; more than 100 µM in [3]; 42.1 µM in assay [4]; 47.4 µM in [5]; 91.4 µM in assay [7]. The TGI in assay [13] was 51.8 µM; in assay [8], 73.4 µM; in [9], more than 100 µM; in assay [10] it was 60.5 µM; in [11], 58.5 µM; in assay [12], more than 100 µM.
For `C/C=C1/CN2CCC3(O)c4ccccc4N4C=C(C(=O)OC)C1CC2C43O` (centres undefined), the TGI in [1], in assay [2], in assay [3], in [4], in [5] and in assay [6] was more than 100 µM throughout. Further, the TGI in [7], in assay [13], in [8], in assay [9], in assay [10] and in assay [12] was more than 100 µM in each case.
`CC(C)(C)OC(=O)N(O)CCCn1cnc2c(N)ncnc21`: the TGI in assay [1], in assay [2], in assay [3], in assay [4], in assay [5] and in assay [6] was more than 100 µM each time. The TGI in [7], in assay [8], in assay [9], in assay [11] and in assay [12] was more than 100 µM in each case.
In the case of `COP(=O)(Cc1ccccc1)Cc1ccccc1`, the TGI in [2], in assay [3], in [4], in [5], in assay [6] and in assay [7] was more than 100 µM throughout. Besides, the TGI in assay [13], in [8], in assay [9], in [10] and in assay [12] was more than 100 µM in each case.
Turning to `Cc1nc(C(N)=S)sc1C(/C=C/c1ccc(Cl)c(Cl)c1)=N/NC(C)(C)C`, the TGI in assay [1], in assay [2], in [3], in [4], in assay [5] and in assay [7] was more than 100 µM each time. For the same compound, the TGI in assay [13], in assay [8], in [9], in [10] and in assay [12] was more than 100 µM in each case.
Regarding `CC(=O)Oc1cc2c(c3ncccc13)OC(C)(C)C2`, the TGI is 30.7 µM in assay [1]; more than 100 µM in [2]; 24.9 µM in [3]; 29.5 µM in assay [4]; 28.7 µM in [5]; 23.4 µM in assay [6]. The TGI is more than 100 µM in [7]; more than 100 µM in assay [8]; 25.5 µM in [9]; 21.3 µM in assay [10]; 33 µM in [11]; more than 100 µM in assay [12].
